Data as given in patent US20250171459A1, “2-METHYL-4',5'-DIHYDROSPIRO[PIPERIDINE-4,7'-THIENO[2,3-C]PYRAN] DERIVATIVES AS INHIBITORS OF APOL1 AND METHODS OF USING SAME” (Vertex Pharmaceuticals Incorporated, priority 2022, published 2025).

These compounds were tested against T1, APOL1 (Homo sapiens, UniProt O14791) (assay: MultiTox-Fluor Multiplex Cytotoxicity Assay in tet-inducible APOL1 T-REx-HEK293 cells (cell rescue, ratio of dead to live cells)). Conditions: tet-inducible transgenic APOL1 T-REx-HEK293 cell lines, 50 ng/mL tet, 24 hours; read-out: IP50 (i.e., IC50 for cell proliferation).
T1 sequence (O14791 1-398 S342G/I384M): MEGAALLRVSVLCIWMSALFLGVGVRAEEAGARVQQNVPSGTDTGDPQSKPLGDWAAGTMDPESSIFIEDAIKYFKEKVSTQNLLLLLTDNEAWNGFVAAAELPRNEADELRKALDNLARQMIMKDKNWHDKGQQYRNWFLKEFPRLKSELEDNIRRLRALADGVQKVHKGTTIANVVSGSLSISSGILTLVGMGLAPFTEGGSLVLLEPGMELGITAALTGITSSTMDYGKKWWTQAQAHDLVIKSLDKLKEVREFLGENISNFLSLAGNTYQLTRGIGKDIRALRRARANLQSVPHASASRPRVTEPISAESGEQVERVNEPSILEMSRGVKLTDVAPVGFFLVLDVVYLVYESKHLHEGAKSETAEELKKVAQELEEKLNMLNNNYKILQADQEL
Assay type: cell-based
Summary of the method: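 T-REx-HEK293 cells with tet-inducible APOL1 were treated with compound (10 μM top, 10-point 3-fold dilution, duplicate) plus 50 ng/mL tetracycline for 24 h at 37° C, in DMEM with 2% tet-free FBS. MultiTox-Fluor protease signals gave a dead/live ratio, normalized to no tet (100% viability) and tet alone (0%).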
`C[C@H]1C[C@@]2(CCN1Cc1cnn(CC(O)CC3(O)CCCC3)c1)OCCc1c2sc(C(F)(F)F)c1CO` (some centres unmarked) [Compound 962] was tested, and the IC50 was < 100 nM. In the case of `C[C@H]1C[C@@]2(CCN1Cc1cn(CC(C)(CO)CO)nn1)OCCc1cc(CC(F)F)sc12` [Compound 546], the IC50 is reported as < 100 nM. Work on `Cc1nc(CN2CC[C@]3(C[C@@H]2C)OCCc2cc(CC(F)F)sc23)c(C)o1` [Compound 618] yielded an IC50 of 500 to 1000 nM. `CCc1cc2c(s1)CCOC21CCN(Cc2cc3nc(OC)ccc3[nH]2)CC1` [Compound 1126, 2′-ethyl-1-((5-methoxy-1H-pyrrolo[3,2-b]pyridin-2-yl)methyl)-6′,7′-dihydrospiro[piperidine-4,4′-thieno[3,2-c]pyran]] was tested, and the IC50 was < 100 nM. Compound `CCc1cc2c(s1)CCO[C@@]21CCN(CC2CN(S(=O)(=O)c3c[nH]cn3)C2)[C@@H](C)C1` [Compound 496] has an IC50 of 500 to 1000 nM. `CCc1cc2c(s1)CCO[C@@]21CCN(C[C@H]2C[C@@H](NS(=O)(=O)c3ccccc3OC)C2)[C@@H](C)C1` [Compound 404] was tested, and the IC50 was < 100 nM. `CCc1cc2c(s1)CCO[C@@]21CCN(CC2CN(C(=O)OC(C)(C)C)C2)[C@@H](C)C1` [Compound 420, tert-butyl 3-[[(2′S,4R)-2-ethyl-2′-methyl-spiro[6,7-dihydrothieno[3,2-c]pyran-4,4′-piperidine]-1′-yl]methyl]azetidine-1-carboxylate] was tested, and the IC50 was < 100 nM. `CCc1cc2c(s1)CCO[C@@]21CCN(Cc2cn(CCn3ccnc3C)nn2)[C@@H](C)C1` [Compound 68] showed an IC50 of 100 to 500 nM. With `C[C@H]1C[C@@]2(CCN1Cc1ccc(OCCO)cc1)OC[C@H](O)c1cc(Cl)sc12` [Compound 775] the IC50 was < 100 nM. In the case of `C[C@H]1C[C@@]2(CCN1CC1(O)CCOCC1)OCCc1cc(CC(F)F)sc12` [Compound 600], the IC50 is reported as 100 to 500 nM. `CCc1cc2c(s1)CCO[C@@]21CCN(CC2CN(C(=O)Cc3ccncc3)C2)[C@@H](C)C1` [Compound 438] was tested, and the IC50 was < 100 nM. `CC1COC2(CCN(Cc3cn(CCS(C)(=O)=O)nn3)[C@@H](C)C2)c2cc(C(F)(F)F)sc21` (some centres unmarked) [Compound 541] was tested, and the IC50 was < 100 nM. For `CCc1cc2c(s1)CCO[C@@]21CCN(C[C@H]2C[C@@H](NC(=O)C3CCCC(C)(C)C3)C2)[C@@H](C)C1` (some centres unmarked) [Compound 312], the IC50 was < 100 nM. In the case of `CCc1cc2c(s1)CCO[C@@]21CCN(Cc2cn([C@H]3C[C@H](S(C)(=O)=O)C3)nn2)[C@@H](C)C1` [Compound 18], the IC50 is reported as < 100 nM. In the case of `CCc1cc2c(s1)CCO[C@@]21CCN(Cc2cn(CCNC(=O)c3ccncc3)nn2)[C@@H](C)C1` [Compound 42], the IC50 is reported as < 100 nM. With `CCc1cc2c(s1)CCO[C@@]21CCN(Cc2cn(C3CN(S(C)(=O)=O)C3)nn2)[C@@H](C)C1` [Compound 162] the IC50 was < 100 nM. In the case of `C[C@H]1C[C@@]2(CCN1Cc1cn(CC(C)(CO)CO)nn1)OCCc1c2sc(C(F)(F)F)c1CO` [Compound 1003], the IC50 is reported as < 100 nM. `C[C@H]1C[C@@]2(CCN1Cc1cnn(CC3CC(C)(C)C(=O)O3)c1)OCCc1c2sc(C(F)(F)F)c1CO` (some centres unmarked) [Compound 983] was tested, and the IC50 was < 100 nM. `C[C@H]1C[C@@]2(CCN1Cc1cn(-c3ncccn3)cn1)OC[C@H](O)c1cc(Cl)sc12` [Compound 790] gave an IC50 of 100 to 500 nM. `CCc1cc2c(s1)CCOC21CCN(Cc2cnc(N[C@H](CC)CO)nc2)CC1` [Compound 1077] gave an IC50 of 100 to 500 nM. `CCc1cc2c(s1)CCO[C@@]21CCN(C[C@H]2C[C@@H](NS(=O)(=O)c3cccs3)C2)[C@@H](C)C1` [Compound 405] was tested, and the IC50 was < 100 nM. `CC(=O)n1cc(CN2CCC3(CC2)OCCc2sc(Cl)cc23)cn1` [Compound 1166] showed an IC50 of 100 to 500 nM. `CCc1cc2c(s1)CCOC21CCN(Cc2cncnc2)CC1` [Compound 1156] gave an IC50 of 500 to 1000 nM. In the case of `CCc1cc2c(s1)CCO[C@@]21CCN(Cc2cn(CC3CCCCS3(=O)=O)nn2)[C@@H](C)C1` (some centres unmarked) [Compound 158], the IC50 is reported as < 100 nM. In the case of `CCOCCC(O)Cn1cc(CN2CC[C@]3(C[C@@H]2C)OCCc2c3sc(C(F)(F)F)c2CO)cn1` (some centres unmarked) [Compound 957], the IC50 is reported as < 100 nM. In the case of `CCc1cc2c(s1)CCO[C@@]21CCN(Cc2cn(CCCO)nn2)[C@@H](C)C1` [Compound 153], the IC50 is reported as < 100 nM. `C[C@H]1C[C@@]2(CCN1Cc1ccnnc1)OCCc1cc(CC(F)F)sc12` [Compound 569] was tested, and the IC50 was < 100 nM. For `Cc1cc2c(s1)[C@]1(CCN(Cc3cnn(CCO)c3)[C@@H](C)C1)OCC2` [Compound 1027, 2-[4-[[(2′S, 7R)-2,2′-dimethylspiro[4,5-dihydrothieno[2,3-c]pyran-7,4′-piperidine]-1′-yl]methyl]pyrazol-1-yl]ethanol], the IC50 was < 100 nM. In the case of `CCc1cc2c(s1)CCOC21CCN(Cc2cn(C3CCN(C(C)=O)CC3)nn2)CC1` [Compound 1116], the IC50 is reported as 500 to 1000 nM. For `CCc1cc2c(s1)CCO[C@@]21CCN(CC2CN(C(=O)c3c[nH]c(C(F)(F)F)n3)C2)[C@@H](C)C1` [Compound 460], the IC50 was < 100 nM. `CCc1cc2c(s1)CCO[C@@]21CCN(CC(O)c2ccc(F)cc2)[C@@H](C)C1` (some centres unmarked) [Compound 249] was tested, and the IC50 was < 100 nM. With `CCc1cc2c(s1)CCO[C@@]21CCN(Cc2cn(CC(C)(C)CO)nn2)[C@@H](C)C1` [Compound 135] the IC50 was 100 to 500 nM. Compound `CCc1cc2c(s1)CCO[C@@]21CCN(Cc2cn([C@H]3C[C@@H](S(C)(=O)=O)C3)nn2)[C@@H](C)C1` [Compound 19] has an IC50 of 100 to 500 nM. With `COc1ncc(CN2CC[C@]3(C[C@@H]2C)OCCc2cc(CC(F)F)sc23)c(OC)n1` [Compound 593] the IC50 was < 100 nM. In the case of `C[C@H]1C[C@@]2(CCN1Cc1cnn(C)c1)OC[C@](O)(C(F)F)c1cc(Cl)sc12` [Compound 831], the IC50 is reported as < 100 nM. For `CCc1cc2c(s1)CCO[C@@]21CCN(Cc2cn(Cc3cocn3)nn2)[C@@H](C)C1` [Compound 35], the IC50 was 100 to 500 nM. In the case of `CNC(=O)Cn1cc(CN2CC[C@]3(C[C@@H]2C)OCCc2cc(Cl)sc23)cn1` [Compound 703], the IC50 is reported as < 100 nM. `COc1cc(OCC(N)=O)ccc1CN1CC[C@]2(C[C@@H]1C)OCCc1c2sc(Cl)c1CO` [Compound 716] was tested, and the IC50 was 100 to 500 nM. In the case of `CCc1cc2c(s1)CCO[C@@]21CCN(Cc2cnc(NC(C)(CC)CO)nc2)[C@@H](C)C1` (some centres unmarked) [Compound 224], the IC50 is reported as < 100 nM. In the case of `CCc1cc2c(s1)CCO[C@@]21CCN(Cc2cn(CC3CCCS3(=O)=O)nn2)[C@@H](C)C1` (some centres unmarked) [Compound 161], the IC50 is reported as < 100 nM. `C[C@H]1C[C@@]2(CCN1Cc1cn(CCS(C)(=O)=O)nn1)OCC(O)c1cc(Cl)sc12` (some centres unmarked) [Compound 823] was tested, and the IC50 was 100 to 500 nM. With `C[C@H]1C[C@@]2(CCN1CCO)OCCc1sc(Cl)cc12` [Compound 506] the IC50 was 100 to 500 nM. For `CCc1cc2c(s1)CCO[C@@]21CCN(Cc2cnc(N[C@H]3COC[C@@H]3O)nc2)[C@@H](C)C1` [Compound 203], the IC50 was < 100 nM. `CCc1cc2c(s1)CCO[C@@]21CCN(Cc2cn(CC(O)Cc3ccc(F)cc3)nn2)[C@@H](C)C1` (some centres unmarked) [Compound 112] was tested, and the IC50 was < 100 nM. In the case of `CCc1cc2c(s1)CCO[C@@]21CCN(CC2CN(C(=O)CCCc3c[nH]nn3)C2)[C@@H](C)C1` [Compound 471], the IC50 is reported as < 100 nM. `CNS(=O)(=O)CCn1cc(CN2CC[C@]3(C[C@@H]2C)OCCc2c3sc(C(F)(F)F)c2CO)cn1` [Compound 916] was tested, and the IC50 was < 100 nM. `CCc1cc2c(s1)CCO[C@@]21CCN(C2CC[C@@H](NC(=O)OC(C)(C)C)C2)[C@@H](C)C1` (single isomer, unassigned) [Compound 296] showed an IC50 of 100 to 500 nM. `C[C@H]1C[C@@]2(CCN1C[C@H](O)C(N)=O)OCCc1cc(C(F)(F)F)sc12` [Compound 867, (2S)-2-hydroxy-3-[(2′S,7R)-2′-methyl-2-(trifluoromethyl)spiro[4,5-dihydrothieno[2,3-c]pyran-7,4′-piperidine]-1′-yl]propanamide] gave an IC50 of 100 to 500 nM. `COc1ncc(CN2CC[C@]3(C[C@@H]2C)OCCc2c3sc(Cl)c2CO)cn1` [Compound 729] was tested, and the IC50 was < 100 nM. In the case of `CNC(=O)c1cccc(CN2CC[C@]3(C[C@@H]2C)OC[C@H](O)c2cc(Cl)sc23)c1` [Compound 812], the IC50 is reported as 100 to 500 nM. With `CCc1cc2c(s1)CCO[C@@]21CCN(C[C@H]2C[C@@H](NS(=O)(=O)CC)C2)[C@@H](C)C1` [Compound 394] the IC50 was < 100 nM. Compound `C[C@H]1C[C@@]2(CCN1Cc1ccc(F)cc1)OCCc1cc(Cl)sc12` [Compound 672] has an IC50 of 100 to 500 nM. `C[C@H]1C[C@@]2(CCN1Cc1cnn(C)c1)OCC(O)c1cc(Cl)sc12` (single isomer, unassigned) [Compound 819] was tested, and the IC50 was < 100 nM. `CCc1cc2c(s1)CCOC21CCN(Cc2cn(CC(=O)NCC(C)O)nn2)CC1` (centres unmarked) [Compound 1092] showed an IC50 of 500 to 1000 nM. For `CCc1cc2c(s1)CCO[C@@]21CCN(Cc2cn(CC(=O)NCCO)nn2)[C@@H](C)C1` [Compound 81], the IC50 was 100 to 500 nM. For `CCc1cc2c(s1)CCO[C@@]21CCN(C[C@H]2C[C@@H](NC(=O)C3CC(=O)C3(C)C)C2)[C@@H](C)C1` (some centres unmarked) [Compound 318], the IC50 was < 100 nM. For `C[C@H]1C[C@@]2(CCN1Cc1cn(CCCS(C)(=O)=O)nn1)OC[C@](O)(C(F)F)c1cc(Cl)sc12` [Compound 839], the IC50 was < 100 nM. For `CCc1cc2c(s1)CCO[C@@]21CCN(Cc2cn(C3CS(=O)(=O)C3)nn2)[C@@H](C)C1` [Compound 29], the IC50 was < 100 nM. `CCc1cc2c(s1)CCOC21CCN(Cc2ccncc2)CC1` [Compound 1153] showed an IC50 of 500 to 1000 nM. For `C[C@H]1C[C@@]2(CCN1CC1CCOC1)OCCc1cc(CC(F)F)sc12` (some centres unmarked) [Compound 583], the IC50 was 100 to 500 nM. `CCc1cc2c(s1)CCO[C@@]21CCN(C[C@H]2C[C@@H](NC(=O)C3CCOC(C)(C)C3)C2)[C@@H](C)C1` (some centres unmarked) [Compound 315] was tested, and the IC50 was < 100 nM. For `CCc1cc2c(s1)CCO[C@@]21CCN(Cc2cn(-c3cnc(C)nc3)nn2)[C@@H](C)C1` [Compound 70], the IC50 was < 100 nM.
